Measured values reported in the NIST ThermoML archive (doi:10.1021/je060108f).
Numbers after ± are expanded uncertainties.

Legend:
[1] = wn = mass fraction of the nth substance listed; details: 101 kPa, Liquid
[2] = 101 kPa, Liquid

OCCC1CCCCN1 (stereo not given) [2-(2-hydroxyethyl)piperidine] + O
[1]
Details | mass density [kg/m3] | viscosity [mPa·s]
288 K, w1 = 0.05 | 1001.8 ± 2.2 | 1.364 ± 0.098
288 K, w1 = 0.1 | 1004.7 ± 2.2 | 1.775 ± 0.12
288 K, w1 = 0.15 | 1005 ± 2.3 | 2.313 ± 0.16
288 K, w1 = 0.2 | 1011.1 ± 2.3 | 2.935 ± 0.2
288 K, w1 = 0.25 | 1014.5 ± 2.3 | 3.921 ± 0.26
288 K, w1 = 0.3 | 1017.3 ± 2.4 | 5.218 ± 0.34
293 K, w1 = 0.05 | 1000.1 ± 2.1 | 1.298 ± 0.094
293 K, w1 = 0.1 | 1002.3 ± 2.1 | 1.655 ± 0.12
293 K, w1 = 0.15 | 1003.2 ± 2.1 | 2.097 ± 0.15
293 K, w1 = 0.2 | 1008.3 ± 2.2 | 2.696 ± 0.18
293 K, w1 = 0.25 | 1012.5 ± 2.2 | 3.506 ± 0.24
293 K, w1 = 0.3 | 1014.9 ± 2.3 | 4.697 ± 0.31
298 K, w1 = 0.05 | 998.9 ± 2.2 | 1.116 ± 0.082
298 K, w1 = 0.1 | 1001.6 ± 2.2 | 1.423 ± 0.1
298 K, w1 = 0.15 | 1002.4 ± 2.2 | 1.762 ± 0.12
298 K, w1 = 0.2 | 1005.9 ± 2.3 | 2.289 ± 0.16
298 K, w1 = 0.25 | 1010.1 ± 2.3 | 2.968 ± 0.2
298 K, w1 = 0.3 | 1012.7 ± 2.4 | 3.858 ± 0.26
303 K, w1 = 0.05 | 997.6 ± 2.2 | 1.064 ± 0.078
303 K, w1 = 0.1 | 999.6 ± 2.3 | 1.316 ± 0.095
303 K, w1 = 0.15 | 1001.4 ± 2.3 | 1.599 ± 0.11
303 K, w1 = 0.2 | 1003.7 ± 2.3 | 2.037 ± 0.14
303 K, w1 = 0.25 | 1007.5 ± 2.4 | 2.603 ± 0.18
303 K, w1 = 0.3 | 1009.6 ± 2.4 | 3.429 ± 0.23
308 K, w1 = 0.05 | 996 ± 2.3 | 0.959 ± 0.072
308 K, w1 = 0.1 | 997.4 ± 2.3 | 1.216 ± 0.089
308 K, w1 = 0.15 | 998.9 ± 2.4 | 1.489 ± 0.11
308 K, w1 = 0.2 | 1001.7 ± 2.4 | 1.869 ± 0.13
308 K, w1 = 0.25 | 1003.1 ± 2.5 | 2.382 ± 0.17
308 K, w1 = 0.3 | 1006.4 ± 2.5 | 3.069 ± 0.21
313 K, w1 = 0.05 | 994.3 ± 2.4 | 0.828 ± 0.063
313 K, w1 = 0.1 | 996.5 ± 2.4 | 1.015 ± 0.076
313 K, w1 = 0.15 | 997.9 ± 2.4 | 1.253 ± 0.091
313 K, w1 = 0.2 | 999.3 ± 2.5 | 1.511 ± 0.11
313 K, w1 = 0.25 | 999.9 ± 2.5 | 1.938 ± 0.14
313 K, w1 = 0.3 | 1001.8 ± 2.6 | 2.468 ± 0.17
318 K, w1 = 0.05 | 992.4 ± 2.5 | 0.776 ± 0.06
318 K, w1 = 0.1 | 994.2 ± 2.5 | 0.965 ± 0.072
318 K, w1 = 0.15 | 995.5 ± 2.5 | 1.156 ± 0.085
318 K, w1 = 0.2 | 996.7 ± 2.5 | 1.429 ± 0.1
318 K, w1 = 0.25 | 998.8 ± 2.5 | 1.795 ± 0.13
318 K, w1 = 0.3 | 1000.2 ± 2.6 | 2.229 ± 0.15
323 K, w1 = 0.05 | 990.3 ± 2.5 | 0.684 ± 0.054
323 K, w1 = 0.1 | 991.7 ± 2.5 | 0.828 ± 0.063
323 K, w1 = 0.15 | 993.5 ± 2.6 | 0.995 ± 0.074
323 K, w1 = 0.2 | 994.7 ± 2.6 | 1.193 ± 0.087
323 K, w1 = 0.25 | 996.1 ± 2.6 | 1.523 ± 0.11
323 K, w1 = 0.3 | 997.3 ± 2.7 | 1.891 ± 0.13
328 K, w1 = 0.05 | 987.7 ± 2.6 | 0.651 ± 0.052
328 K, w1 = 0.1 | 988.7 ± 2.6 | 0.778 ± 0.06
328 K, w1 = 0.15 | 990.6 ± 2.6 | 0.975 ± 0.073
328 K, w1 = 0.2 | 991.9 ± 2.7 | 1.173 ± 0.086
328 K, w1 = 0.25 | 993 ± 2.7 | 1.39 ± 0.1
328 K, w1 = 0.3 | 994.3 ± 2.7 | 1.769 ± 0.12
333 K, w1 = 0.05 | 983.5 ± 2.7 | 0.585 ± 0.048
333 K, w1 = 0.1 | 985.9 ± 2.7 | 0.695 ± 0.055
333 K, w1 = 0.15 | 987.9 ± 2.7 | 0.837 ± 0.064
333 K, w1 = 0.2 | 988.7 ± 2.7 | 1.013 ± 0.076
333 K, w1 = 0.25 | 990.3 ± 2.8 | 1.229 ± 0.09
333 K, w1 = 0.3 | 991.3 ± 2.8 | 1.536 ± 0.11

CN(CCO)CCO [N-methyldiethanolamine]
[2]
Details | mass density [kg/m3] | viscosity [mPa·s]
288 K | 1044.1 ± 3.6 | 142.02 ± 31
313 K | 1027.2 ± 3.7 | 34.73 ± 2.2
333 K | 1012.6 ± 3.8 | 14.66 ± 0.95

CN(CCO)CCO [N-methyldiethanolamine] + O
[1]
Details | mass density, w1 = 0.1 [kg/m3] | mass density, w1 = 0.2 [kg/m3] | mass density, w1 = 0.3 [kg/m3] | mass density, w1 = 1 [kg/m3] | viscosity, w1 = 0.1 [mPa·s] | viscosity, w1 = 0.2 [mPa·s] | viscosity, w1 = 0.3 [mPa·s] | viscosity, w1 = 1 [mPa·s]
288 K | 1007.9 ± 2.2 | 1016.7 ± 2.3 | 1030.7 ± 2.4 | 1044.1 ± 3.6 | 1.703 ± 0.12 | 2.624 ± 0.18 | 4.399 ± 0.29 | 142.02 ± 31
313 K | 1000.4 ± 2.4 | 1008.6 ± 2.5 | 1019.3 ± 2.6 | 1027.2 ± 3.7 | 0.899 ± 0.068 | 1.305 ± 0.095 | 1.929 ± 0.14 | 34.73 ± 2.2
333 K | 990.2 ± 2.7 | 999.5 ± 2.7 | 1007.1 ± 2.8 | 1012.6 ± 3.8 | 0.63 ± 0.05 | 0.86 ± 0.066 | 1.218 ± 0.09 | 14.66 ± 0.95
